Paper PMC10492782, “Exploiting the aggregation propensity of beta-lactamases to design inhibitors that induce enzyme misfolding” (Nature Communications, 2023)

How the values were obtained:
NCI-H441 = conditions: 24 h, 400 to 12.5 µg/mL
Protocol: (§1) The Cell Titer Blue assay was performed to evaluate the cell viability according to the instructions of the manufacturer (Promega, USA). The peptide treatments were done in DMEM medium without serum. Briefly, cells were seeded to approximately 20,000 mammalian cells per well in a 96-well flat-bottom plate (BD Biosciences 353075) and incubated at 37 °C with 5% CO2 and 90% humidity. Peptides were diluted in cell medium, and cells were treated for 24 h. 20 μL of the CellTiter Blue reagent was added to each well and the plate was incubated for 1 h at 37 °C. The fluorescence was measured at 590 nm by exciting at 560 nm with a ClarioStar plate reader (BMG Labtech, Germany).
(§2) Khodaparast et al Supplementary data
(§3) Supplementary Figure 12: Cell viability assays on mammalian cells using the CellTiter Blue assay, plotted as relative values compared to vehicle. The colours of the bars show the concentrations indicated in the legends in µg/mL, ranging from 400 to 6.25 µg/mL. The dots indicate individual measurements on independent wells of cells (4 repeats), the bars

[1] = system: primary mouse cortical neurons; conditions: 24 h, 400 to 6.25 µg/mL
Protocol: as §1, §2, §3

HT-1376 = conditions: 24 h, 400 to 6.25 µg/mL
Protocol: as §1, §2, §3

HEK293 = conditions: 24 h, 400 to 6.25 µg/mL
Protocol: as §1, §2, §3

SH-SY5Y = conditions: 24 h, 400 to 6.25 µg/mL
Protocol: as §1, §2, §3

[2] = system: uro-pathogenic E. coli strain (UPEC strain blaTEM-1); test: MIC of ampicillin with or without 32 µg/mL TEM3.2 or tazobactam; format: cell-based, Escherichia coli; conditions: 32 μg/mL of either TEM3.2 or tazobactam
Protocol: We also performed a tolerability study using a dose escalation method by administering the peptide at 2, 5, 10, 15, and 20 mg/kg via different parenteral routes: intravenous (IV), intraperitoneal (IP), and subcutaneous (SC) in female C57BL/6JAX mice, aged 8–10 weeks (Suppl Table 4). […] Vehicle alone (0.9% NaCl) was also administered (IV). After 24 h the animals were sacrificed and the bacterial load in the bladder, kidney, and ureter was quantified by determining the number of colony-forming units (CFU) per mL of tissue extract (Fig. 7E–G).
Determination of MIC values was performed using the broth microdilution method according to the EUCAST guideline, which was performed in 96-well polystyrene flat-bottom microtiter plates (BD Biosciences). Briefly, a single colony was inoculated into 5 mL Difco™ Mueller–Hinton Broth (BD Biosciences Ref 275730) and grown to the end-exponential growth phase in a shaking incubator at 37 °C. Cultures were subsequently diluted to a MacFarland (0.5 optical density) to reach 10^6 CFU/mL in fresh MHB medium. 50 µl of different concentrations of peptides ranging from 128 to 2 µg/mL were serially diluted to the sterile 96-well plate in MHB. 50 µL of the diluted bacteria in MHB were next pipetted into 96-well plates to reach the final volume of 100 µL. The bacteria grown with the maximum concentration of carrier and medium were considered positive and negative controls, respectively. The plates were statically incubated overnight at 37 °C to allow bacterial growth. OD was measured at 590 nm using a multipurpose ultraviolet–visible plate reader, and the absorbance of the bacterial growth was measured using an absorbance reader.

E. coli TEM104 = conditions: checkerboard, strain containing TEM1 / TEM-1; FICI below 0.5 = synergy
Protocol: To quantify the synergy between these four peptides and penicillin G, we performed a so-called checkerboard assay, which allows us to compare the activity of two test compounds co-incubated (here peptide and a beta-lactam antibiotic), to their individual activities in isolation. […] We evaluated the synergy of the peptides with penicillin G in clinical E. coli isolates carrying the TEM (Fig. 3D) or SHV enzymes (Fig. 3E). […] The list of strains included some that harbored only TEM or SHV, but others contained additional Ambler Class A (CTX-M or OXA) or Class B (VIM and NDM) beta-lactamases.
For the analysis of synergy between the peptides and other antibiotics, a checkerboard assay was performed. Based on the MICs of the selected peptides, a checkerboard assay was designed to define their FICIs (Fractional Inhibitory Concentration Index) in combinations against different clinical isolates[53],[54]. Briefly, a total volume of 100 μL of Mueller–Hinton broth was distributed into each well of the 96-well plates. The first compound (peptide) of the combination was serially diluted vertically (128, 64, 32, 16, 8, 4, 2, 0 μg/mL) while the other drug (Beta-lactam or Kanamycin) was diluted horizontally in a 96-well plate (from 3200 to 3 μg/ mL). The total volume of each microtiter well was inoculated with 100 μL of MHB containing 1 × 10^6 CFU/mL bacteria. The plates were incubated at 37 °C for 24 h under aerobic conditions without shaking. Calculation of the FICI is used to analyze the results of the checkerboard assay by estimating the degree of synergistic effect. FICI is calculated as the sum of the individual fractional inhibitory concentrations (FICs) for each drug (where MIC A and MIC B denote the MIC of each drug alone, and MIC AA+B and MIC BA+B denote the concentrations of A and B in the drug combination). FICI = (MIC AA+B/MIC A) + (MIC BA+B/MIC B). With FICI ≤ 0.5, the combination of antibiotics is considered as a synergistic effect, 0.5 < FICI ≤ 1 indicates additivity, FICI > 1 indicates indifference.

## Ac-RLTAFLHNRRPRLTAFLRQRR-NH2 [TEM3.2]
NCI-H441
  cytotoxicity, Cell Titer Blue (in words): not cytotoxic
[1]
  cytotoxicity, Cell Titer Blue (in words): not cytotoxic
HT-1376
  cytotoxicity, Cell Titer Blue (in words): not cytotoxic
HEK293
  cytotoxicity, Cell Titer Blue (in words): not cytotoxic
SH-SY5Y
  cytotoxicity, Cell Titer Blue (in words): not cytotoxic
[2]
  MIC Ampicillin in the presence of additive: 25 µg/mL
E. coli TEM104
  synergy with penicillin G (in words): showed synergy in both strains
